Data reported in paper PMC6611794, “Development of a high-throughput strategy for discovery of potent analogues of antibiotic lysocin E” (Nature Communications, 2019).
Where “and” joins values, the source holds several entries; their conditions need not be identical. Equal entries are not always repeated. Where two headings read alike, the source gives them in different places. Where a SMILES comes first, the peptide text is derived from it. Bridges are numbered along the chain shown (N, C = ends). [ ]: non-standard residue; d: D form. The star is where a group is joined. Hexanoyl(3R-OH,5-Me) = CC(C)C[C@@H](O)CC(=O)*; dNMeF = CN[C@H](Cc1ccccc1)C(=O)O; dOrn = NCCC[C@@H](N)C(=O)O

What was measured:
[1] = On-bead menaquinone complexation assay (fluorescence of 2H); format: binding; conditions: single library bead (hit beads >1000 a.u.), average of three readings
Protocol: Next, the feasibility of the on-bead complexation assay was assessed using bead-linked lysocin E 30 and MK-4 (2). Our initial assay based on the finding that 1 and 2 form a red precipitate upon complexation (Supplementary Fig. 2) was not robust, because the magnitude of the red color was not proportional to the amount of captured 2 (Fig. 2b, c). We therefore developed a fluorescence-based method for quantifying 2 by reducing its naphthoquinone moiety to fluorescent hydroquinone 2H. One bead of 30 was incubated with 2 in MeOH, washed by MeOH in a microplate well, and then the bead-bound 2 was eluted under more forcing hydrophobic conditions (n-BuOH at 50 °C). The eluate containing 2 was treated with NaBH4 in n-BuOH to produce 2H[46]. The fluorescence intensity of 2H was evaluated to determine the quantity of 2 bound to one bead of 30. The method was found with a small margin of error (1026 ± 64 a.u.), indicating its high accuracy (Fig. 2a and Supplementary Fig. 3). Importantly, the structure of 1 remained intact during the complexation assay as judged by UHPLC and mass analyses.
General procedures for menaquinone complexation assay. To the bead-linked lysocin E analogues in LibraTube was added a solution of menaquinone-4 (2) in MeOH (10 mM, 1.0 mL/1000 beads). The mixture was incubated at room temperature for 12 h. A suspension of the beads in MeOH (200 beads/200 µL) was transferred to a 2.0 mL microtube.
Each bead in the microtube was transferred to each well of a 96-well filtration plate (278011, Thermo Fisher Scientific, 1 bead/well) with the solution of 2 (20 µL/bead) using a micropipette. To each well was added MeOH (400 µL), and the beads was filtered by gravity flow (× 3). The beads in the plate were dried under vacuum for 0.5–1 h. The dried beads were transferred to a 96-well PCR plate (652270, Greiner bio-one, 1 bead/well) with MeOH (20 µL/well) using a micropipette. The solution was removed under a stream of Ar at 40 °C to give the 2-bound bead-linked peptides.
To the 2-bound bead-linked peptides in the plate was added n-BuOH (30 µL/well) at room temperature .
The suspension was incubated at 50 °C for 1 h. The resultant mixture in the plate was centrifuged at 3500 × g at room temperature for 10 sec . The supernatant in each well was transferred to the corresponding well of a black polystyrene flat -bottom 96-well plate (655086, Greiner bio-one). The solution was concentrated under a stream of Ar at 40 °C to give the eluted 2.
To the above eluted 2 in the plate was added n-BuOH (25 µL/well) at room temperature. The plate was vortexed at room temperature for 10 min. To the resultant solution was added a solution of NaBH4 in n-BuOH (1.0 mM, 25 µL/well). The plate was vortexed at room temperature for 10 min. The fluorescence of menahydroquinone (2H, Ex. 250 nm/Em. 430 nm) of each well was measured at room temperature every 3 min (0, 3, and 6 min) on Gemini EM microplate reader (Molecular Devices) . The three fluorescence intensities of each bead were averaged and plotted against the bead number.
Evaluation of menaquinone complexation activities of the selected bead-linked peptides. Bead-linked peptides 30, BLP1, and BLP2 were synthesized according to the above described procedures (loading rate:
0.222 mmol/g). The bead-linked peptides were subjected to the MK complexation assay described above.
The obtained fluorescent intensities of 2H (arbitrary unit) were 1026 ± 64 for 30, 396 ± 27 for BLP1, 72.9 ± 2.0 for BLP2, and 41.6 ± 0.1 for background adsorption (no bead), respectively (Supplementary Figure 3).

[2] = Liposomal membrane disruption assay (carboxyfluorescein LUVs); format: biochemical
Protocol: Preparation of LUVs consisting of PC/PG. Carboxyfluorescein-encapsulated large unilamellar vesicles (LUVs) were prepared according to the thin-film hydration method, followed by extrusion through Nuclepore polycarbonate filters (GE Healthcare) mounted in the mini-extruder apparatus (Avanti Polar Lipids). A solution of egg yolk phosphatidylcholine (9.60 mg, 12.5 µmol) and egg yolk phosphatidylglycerol (9.78 mg, 12.5 µmol) in CHCl3 (0.505 mL) was concentrated, and dried under vacuum to form a lipid thin film. The thin film was hydrated and suspended in carboxyfluorescein-containing buffer solution [0.500 mL, 5 mM 4-(2-hydroxyethyl)-1-piperazineethanesulfonic acid (HEPES), 20 mM carboxyfluorescein, pH 7.5] by vortexing and sonication. After five -times freeze-thaw cycles, the lipid suspension was extruded 19 times through a polycarbonate filter with 0.40 µm of pore size in the diameter. The external carboxyfluorescein -containing buffer was replaced w ith a carboxyfluorescein -free buffer solution [20 mM HEPES, 1 mM ethylenediaminetetraacetic acid (EDTA), pH 7.5] through size exclusion chromatography using disposable PD-10 column (GE Healthcare). Concentration of egg yolk phosphatidylcholine was determined by using Phospholipid C-Test Wako (Fujifilm Wako Pure Chemical). The final concentration of egg yolk phosphatidylcholine was adjusted to 4.0 µM with the carboxyfluorescein-free buffer solution, and the solution was used for membrane disruption assay. […]
Membrane disruption assay. […]
to various concentrations as 5-fold serial dilutions. The solution of peptides (2 µL/well) and the carboxyfluorescein-encapsulated LUV suspension (200 µL/well) were mixed in black polystyrene flat-bottom 96-well plates. The final concentration of peptides ranged from 2970 nM to 0.950 nM. The plates were vortexed at room temperature for 30 min, and then fluorescence of carboxyfluorescein (Ex. 490 nm/Em. 517 nm) of each well was measured at room temperature on Gemini EM microplate reader. Trion X-100/H2O (5/95, 2 µL), MeOH/H2O (4/6, 2 µL), and the LUV suspension were mixed in each plate to determine 100% lysis. MeOH/H2O (4/6, 2 µL) and the LUV suspension were mixed in each plate to determine 0% lysis.
The membrane disruption activities of tested peptides (I) were normalized against 100% lysis by Triton X -100 […]
(Imax) and 0% lysis by MeOH/H2O (4/6) (I0) as following, where Ix is the fluorescence intensity (Supplementary Equation 2).
I = 100 × (Ix – I0) / (Imax – I0) (2)
The membrane-disrupting activities were evaluated as half-maximal response (EC50, nM) values by means of three replicates. Sigmoidal curve fittings were performed on R2 with drc package (Supplementary Figs S7–S9).3 Two-parameter logistic model was applied for the fitting.

[3] = 30 min, room temperature, mean ± SD of three independent experiments, read-out: EC50 PC/PG
[4] = PC/PG LUVs, 1st experiment, read-out: EC50 PC/PG 1st
[5] = PC/PG LUVs, 2nd experiment, read-out: EC50 PC/PG 2nd
[6] = PC/PG LUVs, 3rd experiment, read-out: EC50 PC/PG 3rd

Compound	EC50 [2, 3]	EC50 [2, 4]	EC50 [2, 5]	EC50 [2, 6]	fluorescence intensity of 2H [1]	fluorescence intensity of 2H ([1]; listed as KLVI)	fluorescence intensity of 2H ([1]; listed as YLOI)
CC[C@H](C)[C@@H]1NC(=O)[C@@H](Cc2c[nH]c3ccccc23)NC(=O)[C@@H](CCC(N)=O)NC(=O)[C@H](CCC(=O)O)NC(=O)[C@@H](CCCNC(=N)N)NC(=O)[C@H](CC(C)C)NC(=O)[C@@H](Cc2ccccc2)N(C)C(=O)CNC(=O)[C@H](CO)NC(=O)[C@@H](CCCNC(=N)N)NC(=O)[C@@H](NC(=O)C[C@H](O)CC(C)C)[C@@H](C)OC(=O)[C@H]([C@@H](C)O)NC1=O [Peptide 1, Lysocin E] ({Hexanoyl(3R-OH,5-Me)}-T[dR]SG[dNMeF]L[dR]E[dQ][dW]IT; ester 1-C)	559 nM	527 nM	689 nM	460 nM	1369.78 a.u.		
CC[C@H](C)[C@@H]1NC(=O)[C@@H](Cc2c[nH]c3ccccc23)NC(=O)[C@@H](C(C)C)NC(=O)[C@H](CCC(=O)O)NC(=O)[C@@H](CCCNC(=N)N)NC(=O)[C@H](CC(C)C)NC(=O)[C@@H](Cc2ccccc2)N(C)C(=O)CNC(=O)[C@H](CCCCN)NC(=O)[C@@H](CCCNC(=N)N)NC(=O)[C@@H](NC(=O)C[C@H](O)CC(C)C)[C@@H](C)OC(=O)[C@H]([C@@H](C)O)NC1=O [Peptide A3] ({Hexanoyl(3R-OH,5-Me)}-T[dR]KG[dNMeF]L[dR]E[dV][dW]IT; ester 1-C)	822 ± 234 nM	1010 nM	900 nM	559 nM		1439.45 a.u. and 1379.53 a.u.	
CC[C@H](C)[C@@H]1NC(=O)[C@@H](Cc2c[nH]c3ccccc23)NC(=O)[C@@H](CCCN)NC(=O)[C@H](CCC(=O)O)NC(=O)[C@@H](CCCNC(=N)N)NC(=O)[C@H](CC(C)C)NC(=O)[C@@H](Cc2ccccc2)N(C)C(=O)CNC(=O)[C@H](Cc2ccc(O)cc2)NC(=O)[C@@H](CCCNC(=N)N)NC(=O)[C@@H](NC(=O)C[C@H](O)CC(C)C)[C@@H](C)OC(=O)[C@H]([C@@H](C)O)NC1=O [Peptide A7] ({Hexanoyl(3R-OH,5-Me)}-T[dR]YG[dNMeF]L[dR]E[dOrn][dW]IT; ester 1-C)	1120 ± 200 nM	1320 nM	1120 nM	923 nM			1035.66 a.u. and 1123.94 a.u.
CC(C)C[C@@H](O)CC(=O)N[C@@H]1C(=O)N[C@H](CCCNC(=N)N)C(=O)N[C@@H](C)C(=O)NCC(=O)N(C)[C@H](Cc2ccccc2)C(=O)N[C@@H](CC(C)C)C(=O)N[C@H](CCCNC(=N)N)C(=O)N[C@@H](CCC(=O)O)C(=O)N[C@H](Cc2ccc(O)cc2)C(=O)N[C@H](Cc2c[nH]c3ccccc23)C(=O)N[C@@H](Cc2ccc(O)cc2)C(=O)N[C@@H]([C@@H](C)O)C(=O)O[C@@H]1C [Peptide A15] ({Hexanoyl(3R-OH,5-Me)}-T[dR]AG[dNMeF]L[dR]E[dY][dW]YT; ester 1-C)	1010 ± 210 nM	1260 nM	889 nM	895 nM	1125.25 a.u.		
CC[C@H](C)[C@@H]1NC(=O)[C@@H](Cc2c[nH]c3ccccc23)NC(=O)[C@@H](CCCN)NC(=O)[C@H](CCC(=O)O)NC(=O)[C@@H](CCCNC(=N)N)NC(=O)[C@H](CC(C)C)NC(=O)[C@@H](Cc2ccccc2)N(C)C(=O)CNC(=O)[C@H](CC(=O)O)NC(=O)[C@@H](CCCNC(=N)N)NC(=O)[C@@H](NC(=O)C[C@H](O)CC(C)C)[C@@H](C)OC(=O)[C@H]([C@@H](C)O)NC1=O [Peptide A16] ({Hexanoyl(3R-OH,5-Me)}-T[dR]DG[dNMeF]L[dR]E[dOrn][dW]IT; ester 1-C)	> 1500 nM	> 1500 nM	> 1500 nM	> 1500 nM	1414.45 a.u.		

More lines, main results first:

EC50 [2, 3]	EC50 [2, 4]	EC50 [2, 5]	EC50 [2, 6]	Compound	fluorescence intensity of 2H [1]	fluorescence intensity of 2H ([1]; listed as KLVI)	fluorescence intensity of 2H ([1]; listed as YLOI)
975 ± 195 nM	1080 nM	1090 nM	750 nM	CC[C@H](C)[C@@H]1NC(=O)[C@@H](Cc2c[nH]c3ccccc23)NC(=O)[C@@H](CCC(N)=O)NC(=O)[C@H](CCC(=O)O)NC(=O)[C@@H](CCCNC(=N)N)NC(=O)[C@H](CC(C)C)NC(=O)[C@@H](Cc2ccccc2)N(C)C(=O)CNC(=O)[C@H](C)NC(=O)[C@@H](CCCNC(=N)N)NC(=O)[C@@H](NC(=O)C[C@H](O)CC(C)C)[C@@H](C)OC(=O)[C@H]([C@@H](C)O)NC1=O [Peptide A1] ({Hexanoyl(3R-OH,5-Me)}-T[dR]AG[dNMeF]L[dR]E[dQ][dW]IT; ester 1-C)	1237.12 a.u.		
714 ± 188 nM	917 nM	680 nM	545 nM	CC[C@H](C)[C@@H]1NC(=O)[C@@H](Cc2c[nH]c3ccccc23)NC(=O)[C@@H](C(C)C)NC(=O)[C@H](CCC(=O)O)NC(=O)[C@@H](CCCNC(=N)N)NC(=O)[C@H](CC(C)C)NC(=O)[C@@H](Cc2ccccc2)N(C)C(=O)CNC(=O)[C@H](C)NC(=O)[C@@H](CCCNC(=N)N)NC(=O)[C@@H](NC(=O)C[C@H](O)CC(C)C)[C@@H](C)OC(=O)[C@H]([C@@H](C)O)NC1=O [Peptide A2] ({Hexanoyl(3R-OH,5-Me)}-T[dR]AG[dNMeF]L[dR]E[dV][dW]IT; ester 1-C)	1152.24 a.u.		
> 1500 nM	> 1500 nM	> 1500 nM	> 1500 nM	CC[C@H](C)[C@@H]1NC(=O)[C@@H](Cc2c[nH]c3ccccc23)NC(=O)[C@@H](CCCN)NC(=O)[C@H](CCC(=O)O)NC(=O)[C@@H](CCCNC(=N)N)NC(=O)[C@H](CC(C)C)NC(=O)[C@@H](Cc2ccccc2)N(C)C(=O)CNC(=O)[C@H](CC(N)=O)NC(=O)[C@@H](CCCNC(=N)N)NC(=O)[C@@H](NC(=O)C[C@H](O)CC(C)C)[C@@H](C)OC(=O)[C@H]([C@@H](C)O)NC1=O [Peptide A14] ({Hexanoyl(3R-OH,5-Me)}-T[dR]NG[dNMeF]L[dR]E[dOrn][dW]IT; ester 1-C)	1470.92 a.u.		
